According to PubChem BioAssay AID256 (DTP/NCI, 2004):
Where “and” joins values, the source holds several entries; their conditions need not be identical. Identical values can stand only once. Inconclusive results and toxic doses are left out. The calls were made as follows: active = survival T/C of 150% or more; inactive = T/C below 125% in these data.

Test system: CD2F1 mice, L1210 leukemia ip, survival T/C
Experiment: NCI In Vivo Anticancer Drug Screen. Data for tumor model L1210 Leukemia (intraperitoneal) in CD2F1 (CDF1) mice
Details: endpoint: mean survival time, higher = longer survival
Outline: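 Mice carrying a transplanted tumor received test compound or vehicle alone. The value is the measurement in the treated group divided by that in the vehicle-treated control group.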

[1] = dose: 100.0 mg/kg/injection, schedule: Q01DX001 (ip), vehicle: saline
[2] = dose: 200.0 mg/kg/injection, schedule: Q01DX001 (ip), vehicle: saline
[3] = dose: 400.0 mg/kg/injection, schedule: Q01DX001 (ip), vehicle: saline
[4] = dose: 12.5 mg/kg/injection, schedule: Q01DX009 (ip), vehicle: saline with Tween-80
[5] = dose: 25.0 mg/kg/injection, schedule: Q01DX009 (ip), vehicle: saline with Tween-80
[6] = dose: 50.0 mg/kg/injection, schedule: Q01DX009 (ip), vehicle: saline with Tween-80
[7] = dose: 100.0 mg/kg/injection, schedule: Q01DX009 (ip), vehicle: saline with Tween-80
[8] = dose: 200.0 mg/kg/injection, schedule: Q01DX009 (ip), vehicle: saline with Tween-80
[9] = dose: 400.0 mg/kg/injection, schedule: Q01DX009 (ip), vehicle: saline with Tween-80
[10] = dose: 100.0 mg/kg/injection, schedule: Q04DX003 (ip), vehicle: Klucel (hydroxypropylcellulose) (HPC)
[11] = dose: 100.0 mg/kg/injection, schedule: Q04DX003 (ip), vehicle: saline with Tween-80

Measured: T/C

O=S(=O)(O)c1ccc(O)cc1
inactive: [1] 103 % of control | [2] 108 % of control | [3] 100 % of control

COc1ccc2c(c1)CCC1C2CCC2(C)C(=O)OC(=O)C12 (centres undefined)
inactive: dose: 100.0 mg/kg/injection, schedule: Q04DX003 (sc), vehicle: steriod suspending solution 101 % of control | dose: 200.0 mg/kg/injection, schedule: Q04DX003 (sc), vehicle: steriod suspending solution 95 % of control | dose: 400.0 mg/kg/injection, schedule: Q04DX003 (sc), vehicle: steriod suspending solution 98 % of control

Brc1ccc(C[N+]23CN4CN(CN(C4)C2)C3)cc1
inactive: [4] 102 % of control | [5] 102 % of control | [6] 97 % of control | [7] 96 % of control | [8] 94 % of control

CC[n+]1ccc(Nc2ccc(/C=C/c3ccc4cc(Nc5cc[n+](CC)cc5)ccc4[n+]3CC)cc2)cc1
inactive: dose: 2.5 mg/kg/injection, schedule: Q01DX009 (oral), vehicle: saline 98 % of control | dose: 5.0 mg/kg/injection, schedule: Q01DX009 (oral), vehicle: saline 102 % of control | dose: 10.0 mg/kg/injection, schedule: Q01DX009 (oral), vehicle: saline 88 % of control

Nc1ncnc2c1ccn2C1OC(CO)CC1O (centres undefined)
inactive: dose: 75.0 mg/kg/injection, schedule: Q01DX001 (ip), vehicle: saline 103 % of control | dose: 150.0 mg/kg/injection, schedule: Q01DX001 (ip), vehicle: saline 100 % of control | dose: 300.0 mg/kg/injection, schedule: Q01DX001 (ip), vehicle: saline 109 % of control

S=c1cc(-c2ccccc2)ss1
inactive: [7] 97 % of control | [8] 97 % of control | [9] 98 % of control

CCCCCCCCCCCCCC[N+](C)(C)Cc1cc(=O)c(O)co1
inactive: dose: 25.0 mg/kg/injection, schedule: Q04DX003 (ip), vehicle: Klucel (hydroxypropylcellulose) (HPC) 97 % of control | dose: 50.0 mg/kg/injection, schedule: Q04DX003 (ip), vehicle: Klucel (hydroxypropylcellulose) (HPC) 109 % of control | [10] 109 % of control | [11] 87 % of control

CCN(C(=O)Nc1cc(OC)ccc1OC)c1ccc(Cl)cc1
inactive: [7] 96 % of control | [8] 96 % of control | [9] 93 % of control

C(=N\Nc1nc2ccccc2s1)/c1ccc2ccccc2n1
inactive: [10] 95 % of control | dose: 200.0 mg/kg/injection, schedule: Q04DX003 (ip), vehicle: Klucel (hydroxypropylcellulose) (HPC) 94 % of control | dose: 400.0 mg/kg/injection, schedule: Q04DX003 (ip), vehicle: Klucel (hydroxypropylcellulose) (HPC) 94 % of control

CC1=C(/C=C/C(=O)CC(O)(C(F)(F)F)C(F)(F)F)C(C)(C)CCC1
inactive: [11] 104 % of control | dose: 200.0 mg/kg/injection, schedule: Q04DX003 (ip), vehicle: saline with Tween-80 98 % of control | dose: 400.0 mg/kg/injection, schedule: Q04DX003 (ip), vehicle: saline with Tween-80 101 % of control

CCCc1nc2[nH]c(N)nc(=S)c2[nH]1
inactive: dose: 12.5 mg/kg/injection, schedule: Q01DX005 (ip), vehicle: other 100 % of control | dose: 25.0 mg/kg/injection, schedule: Q01DX005 (ip), vehicle: other 108 % of control

Nc1nnc2c3[nH]cnc3ncn12
inactive: dose: 100.0 mg/kg/injection, schedule: Q01DX001 (ip), vehicle: Klucel (hydroxypropylcellulose) (HPC) 98 % of control | dose: 200.0 mg/kg/injection, schedule: Q01DX001 (ip), vehicle: Klucel (hydroxypropylcellulose) (HPC) 95 % of control | dose: 400.0 mg/kg/injection, schedule: Q01DX001 (ip), vehicle: Klucel (hydroxypropylcellulose) (HPC) 104 % of control

CN(C)NCc1ccccc1
inactive: dose: 25.0 mg/kg/injection, schedule: Q01DX009 (ip), vehicle: saline 102 % of control | dose: 50.0 mg/kg/injection, schedule: Q01DX009 (ip), vehicle: saline 102 % of control | dose: 100.0 mg/kg/injection, schedule: Q01DX009 (ip), vehicle: saline 94 % of control and 107 % of control

O=CNc1cc([N+](=O)[O-])ccc1OCc1ccccc1
inactive: [1] 100 % of control | [2] 97 % of control | [3] 96 % of control

COc1ccc(SC(=O)N(C)C)cc1
inactive: [5] 100 % of control | [6] 103 % of control | [7] 95 % of control and 98 % of control

CCOC(=O)c1cc([N+](=O)[O-])cc([N+](=O)[O-])c1Sc1ncnc2nc[nH]c12
inactive: dose: 0.63 mg/kg/injection, schedule: Q01DX005 (ip), vehicle: other 98 % of control | dose: 1.25 mg/kg/injection, schedule: Q01DX005 (ip), vehicle: other 102 % of control | dose: 2.5 mg/kg/injection, schedule: Q01DX005 (ip), vehicle: other 110 % of control | dose: 5.0 mg/kg/injection, schedule: Q01DX005 (ip), vehicle: other 100 % of control | dose: 6.25 mg/kg/injection, schedule: Q01DX005 (ip), vehicle: other 120 % of control | dose: 10.0 mg/kg/injection, schedule: Q01DX005 (ip), vehicle: other 107 % of control | dose: 18.8 mg/kg/injection, schedule: Q01DX005 (ip), vehicle: other 112 % of control

O=C1c2ccccc2C(C(O)(C(F)(F)F)C(F)(F)F)c2ccccc21
inactive: [4] 100 % of control | [5] 98 % of control | [6] 96 % of control

Cn1c(=O)c2[n-]cnc2n(C)c1=O.[NH2-].[NH2-].[NH2-].[NH2-].[NH2-].[Ru+6]
inactive: dose: 6.25 mg/kg/injection, schedule: Q04DX003 (ip), vehicle: water 106 % of control | dose: 12.5 mg/kg/injection, schedule: Q04DX003 (ip), vehicle: water 102 % of control | dose: 25.0 mg/kg/injection, schedule: Q04DX003 (ip), vehicle: water 104 % of control | dose: 50.0 mg/kg/injection, schedule: Q04DX003 (ip), vehicle: water 104 % of control | dose: 100.0 mg/kg/injection, schedule: Q04DX003 (ip), vehicle: water 104 % of control

O=C1C=CC(=O)N1CN1CCOCC1
inactive: dose: 4.37 mg/kg/injection, schedule: Q01DX009 (ip), vehicle: saline 103 % of control | dose: 8.75 mg/kg/injection, schedule: Q01DX009 (ip), vehicle: saline 91 % of control | dose: 12.5 mg/kg/injection, schedule: Q04DX003 (ip), vehicle: saline 95 % of control

CCC(=O)N(C)[C@@H](C)C(=O)O[C@H]1CC(=O)N(C)c2cc(cc(OC)c2Cl)C/C(C)=C/C=C[C@@H](OC)[C@@]2(O)C[C@H](OC(=O)N2)[C@@H](C)[C@@H]2O[C@@]12C
inactive: dose: 1.3 micrograms/kg/injection, schedule: Q01DX009 (ip), vehicle: saline + alcohol 110 % of control | dose: 2.5 micrograms/kg/injection, schedule: Q01DX009 (ip), vehicle: saline + alcohol 119 % of control | dose: 2.5 micrograms/kg/injection, schedule: Q01DX009 (ip), vehicle: saline 109 % of control | dose: 3.8 micrograms/kg/injection, schedule: Q01DX009 (ip), vehicle: saline + alcohol 120 % of control | dose: 5.0 micrograms/kg/injection, schedule: Q01DX009 (ip), vehicle: saline + alcohol 117 % of control and 111 % of control | dose: 5.0 micrograms/kg/injection, schedule: Q01DX009 (ip), vehicle: saline 111 % of control | dose: 7.5 micrograms/kg/injection, schedule: Q01DX009 (ip), vehicle: saline + alcohol 106 % of control | dose: 10.0 micrograms/kg/injection, schedule: Q01DX009 (ip), vehicle: saline + alcohol 115 % of control | dose: 10.0 micrograms/kg/injection, schedule: Q01DX009 (ip), vehicle: saline 111 % of control | dose: 15.0 micrograms/kg/injection, schedule: Q01DX009 (ip), vehicle: saline + alcohol 112 % of control | dose: 20.0 micrograms/kg/injection, schedule: Q01DX009 (ip), vehicle: saline 111 % of control | dose: 30.0 micrograms/kg/injection, schedule: Q01DX009 (ip), vehicle: saline + alcohol 122 % of control | dose: 30.0 micrograms/kg/injection, schedule: Q01DX009 (ip), vehicle: saline 117 % of control | dose: 60.0 micrograms/kg/injection, schedule: Q01DX009 (ip), vehicle: saline + alcohol 114 % of control

O=C1CC(=O)C(CCc2cccc3ccccc23)C1=O (centres undefined)
inactive: dose: 100.0 mg/kg/injection, schedule: Q01DX001 (ip), vehicle: saline with Tween-80 86 % of control | dose: 100.0 mg/kg/injection, schedule: Q04DX002 (ip), vehicle: saline with Tween-80 100 % of control | dose: 200.0 mg/kg/injection, schedule: Q01DX001 (ip), vehicle: saline with Tween-80 94 % of control | dose: 200.0 mg/kg/injection, schedule: Q04DX002 (ip), vehicle: saline with Tween-80 93 % of control | dose: 400.0 mg/kg/injection, schedule: Q01DX001 (ip), vehicle: saline with Tween-80 105 % of control
